Structures are written as SMILES. Where only a bound is given, the exact number is not on record here.

This experiment has as its target Platelet-activating factor receptor (Oryctolagus cuniculus). Nature of the experiment: Inhibition of rabbit platelet aggregation induced by platelet activating factor (PAF).
Consider `CCCCCCCCCCCCCCCCCCNC(=O)OCC(COC(=O)N(CC[N+](C)(C)C)C(=O)CC)OC` (stereo not drawn), for which half-maximal inhibition (IC50) was put at 5.6 µM.

`CCCCCCCCCCCCCCCCCCNC(=O)OCC(COC(=O)N(Cc1cccc[n+]1CCC)C(C)=O)OC` (stereo not drawn) yielded an IC50 of 0.094 µM.

`CCCCCCCCCCCCCCCCCCNC(=O)OCC(COC(=O)N(CC[N+](C)(C)C)C(=O)N(C)C)OC` (stereo not drawn): the concentration for half-maximal inhibition (IC50) amounted to 5.8 µM.

Turning to `CCCCCCCCCCCCCCCCCCNC(=O)OCC(COC(=O)N(CC[N+](C)(C)C)C(=O)CCC)OC` (stereo not drawn), half-maximal inhibition (IC50) was put at 7.8 µM.

On to `CCCCCCCCCCCCCCCCCCNC(=O)OCC(COC(=O)N(Cc1csc[n+]1CC)C(C)=O)OC` (stereo not drawn), for which the midpoint of inhibition, the IC50, lay at 0.092 µM.

Turning to `CCCCCCCCCCCCCCCCCCNC(=O)OCC(COC(=O)N(Cc1cccc[n+]1C)C(C)=O)OC` (stereo not drawn), the IC50 turned out to be 0.2 µM.

Regarding `CCCCCCCCCCCCCCCCCCOCC(COC(=O)NCC[N+](C)(C)C)OC(C)=O` (stereo not drawn), half-maximal inhibition (IC50) was put at 8.4 µM.

In turn, `CCCCCCCCCCCCCCCCCCNC(=O)OCC(COC(=O)N(CC[N+](C)(C)C)C(C)=O)OC` (stereo not drawn) returned an IC50 of 1.5 µM.

`CCCCCCCCCCCCCCCCCCNC(=O)OCC(COC(=O)N(CC[N+]1(C)CCCC1)C(C)=O)OC` (stereo not drawn) had an IC50 of 1.1 µM.

Compound `CCCCCCCCCCCCCCCCCCNC(=O)OCC(COC(=O)N(C)CC[N+](C)(C)C)OC` (stereo not drawn) displayed an IC50 of 8.2 µM.

Turning to `CCCCCCCCCCCCCCCCCCOCC(COC(=O)N(CC[N+](C)(C)C)C(C)=O)OC(C)=O` (stereo not drawn), the midpoint of inhibition, the IC50, lay at 0.88 µM.

Regarding `CCCCCCCCCCCCCCCCCCNC(=O)OCC(COC(=O)N(CC[N+](C)(C)C)C(=O)OC)OC` (stereo not drawn), the half-maximal inhibitory concentration (IC50) was found to be 2.3 µM.

Consider `CCCCCCCCCCCCCCCCCCNC(=O)OCC(COC(=O)NCC[N+](C)(C)C)OC` (stereo not drawn), for which the IC50 is 14 µM.

As for `CCCCCCCCCCCCCCCCCCNC(=O)OCC(COC(=O)N(CC[N+]1(C)CCOCC1)C(C)=O)OC` (stereo not drawn), half-maximal inhibition (IC50) was put at 9.2 µM.

In the case of `CCCCCCCCCCCCCCCCCCNC(=O)OCC(COC(=O)N(CC[N+](C)(C)C)C(=O)N1CCCC1)OC` (stereo not drawn), the IC50 is 8.6 µM.

Compound `CCCCCCCCCCCCCCCCCCNC(=O)OCC(COC(=O)N(Cc1csc[n+]1C)C(C)=O)OC` (stereo not drawn) registered an IC50 of 0.1 µM.

`CCCCCCCCCCCCCCCCCCNC(=O)OCC(COC(=O)N(CC[N+](C)(C)C)C(=O)NCCC)OC` (stereo not drawn) had an IC50 of more than 30 µM.

As to `CCCCCCCCCCCCCCCCCCNC(=O)OCC(COC(=O)N(CCC[N+](C)(C)C)C(C)=O)OC` (stereo not drawn), half-maximal inhibition (IC50) was put at 8.5 µM.
